According to patent US20080145858A1, “DETECTION AND IDENTIFICATION OF TOXICANTS BY MEASUREMENT OF GENE […]” (priority 2003, published 2008):

Tested on: Xenopus laevis cleavage stage embryos (stage 8)
Test: Xenopus cDNA microarray, differential gene expression after PMA treatment during cleavage stage (Group I)
Assay type: in vivo
Details: PMA 100 ng/ml, stage 8
From the text: Specifically, the method and screen of the present invention function as follows. EST clones produced from Xenopus laevis unfertilized eggs were used in the present study with ˜1,200 EST clones from a 18,500 EST clone set selected for production of a Xenopus cDNA microarray. The Xenopus microarray was used to measure the effect of chemical treatment on Xenopus embryo gene regulation. The chemical treatment was a phorbol ester, PMA. Xenopus eggs were obtained from females induced for ovulation and fertilized in vitro. Control Xenopus laevis embryos were allowed to develop to stage 8 blastula or stage 15 neurula. Treated embryos were exposed to PMA during cleavage stage or during neurulation with end points of blastula (stage 8) or neurula (stage 15). Specifically, PMA 100 ng/ml was added to the incubation media during cleavage stages for evaluation in stage 8 embryo or PMA was added during neural induction for evaluation in stage 15 embryos. RNA extracted from the embryos was used to generate fluorescent cDNA probes for Xenopus microarray analyses to measure differential gene expression with and without the phorbol ester treatment. Analysis was performed using paired RNA samples to compare PMA-treated and untreated embryos: Group I measured the effects of PMA-treatment during the cleavage stage in stage 8 embryos and Group II measured the effects of PMA-treatment during neurulation in stage 15 embryos. Group III measured the change in gene expression between stage 8 and stage 15 embryos.
cDNA fragments were obtained by PCR replication of Xenopus laevis unfertilized egg cDNA inserts, purified, quantitated and loaded onto glass chips by robotics. In addition to the selected ˜1,200 genes, 64 lambda Q gene, an internal control cDNA (Genomic Solutions, Inc., Ann Arbor, Mich.) was loaded on the chip. The insert DNA from ˜1,200 clones were PCR amplified using forward and reverse primers (GF.200 primers, Research Genetics, Huntsville, Ala.). A second PCR was carried out using 1 μl of the primary PCR (20 μl) for template. Excess dNTPs, polymerase and other PCR artifacts were removed from the secondary PCR reactions using Millipore Multiscreen plates (Millipore Corporation, Bedford, Mass.) using the standard protocol. The purity of the PCR products was assessed by electrophoresis and documented using an Alphalmager 1000 Digital Imaging System (Alpha Innotech Corporation, San Leandro, Calif.). The DNA obtained by PCR was quantitated using PicoGreen (Molecular Probes, Eugene, Oreg.). The DNA was denatured and arrayed onto amino-silane coated microscope slides (CMT-GAPS coated slides, Corning, Corning, N.Y.) using a Flexys robotic workstation (Genomic Solutions Inc.). The ˜1,200 PCR products were arrayed in duplicate on each slide and cross-linked. Each gene chip contained duplicate cDNA samples.
Total RNA was prepared from embryos treated in three separate dishes per treatment group that were pooled. Total RNA was isolated from the frog embryos (1,200 embryos for each probe production) using TRIzol extraction (Gibco BRL, Grand Island, N.Y.) and Qiagen RNeasy kits (Qiagen, Valencia, Calif.). The ethanol precipitated RNA was resuspended in RNase-free water, quantitated with RiboGreen (Molecular Probes, Eugene, Oreg.). Total RNA was further purified using oligoTex mRNA maxi kit (Qiagen Co.) with the bound mRNA eluted with minimum volume of elution buffer and precipitated with ethanol. The recovery rate of mRNA by the ethanol precipitation method was ˜70%. Cy3- or Cy5-tagged probes were produced from an mRNA mixture (20 μl) of Xenopus mRNA (5 μg) and lambda Q gene mRNA (3.5 ng) reverse-transcribed with oligo(dT)18-22 primer and dNTPs and the reverse-transcribed cDNA was cross-linked with Cy3 or Cy5 as described in Clontech Atlas™ Glass Fluorescent Labeling kit manual (www.clontech.com). After hydrolysis of the RNA and purification of the probe (Centricon 50, Millipore, Bedford, Mass.), the cDNA in TE buffer was quantitated by absorbance at 260 nm. […]

## CCCCCCCCCCCCCC(=O)O[C@@H]1[C@@H](C)[C@@]2(O)[C@@H](C=C(CO)C[C@]3(O)C(=O)C(C)=C[C@@H]23)[C@@H]2C(C)(C)[C@]12OC(C)=O [PMA, phorbol 12-myristate 12-acetate]
PBX0140D01 mRNA
  Normalized by Landmarks (1.59): 3.66
  Normalized by all Data Points (1.28): 2.94
  Ratio of Medians (Cy5/Cy3) First Spot: 2.09
  Ratio of Medians (Cy5/Cy3) Mean: 2.30 ± 0.20
  Ratio of Medians (Cy5/Cy3) Second Spot: 2.50
PBX0140F01 mRNA
  (CY3/CY5) by Landmarks (1.6): 2.39
  (CY3/CY5) by all Data Points (1.3): 3.83
  Normalization by Landmarks (1.6): 0.42
  Normalization by all Data Points (1.3): 0.26
  Ratio of Medians (Cy5/Cy3) First Spot: 0.24
  Ratio of Medians (Cy5/Cy3) Mean: 0.20 ± 0.04
  Ratio of Medians (Cy5/Cy3) Second Spot: 0.16
PBX0140H03 mRNA
  (CY3/CY5) by Landmarks (1.6): 3.52
  (CY3/CY5) by all Data Points (1.3): 5.64
  Normalization by Landmarks (1.6): 0.28
  Normalization by all Data Points (1.3): 0.18
  Ratio of Medians (Cy5/Cy3) First Spot: 0.09
  Ratio of Medians (Cy5/Cy3) Mean: 0.14 ± 0.05
  Ratio of Medians (Cy5/Cy3) Second Spot: 0.19
PBX0141B03 mRNA
  (CY3/CY5) by Landmarks (1.6): 1.74
  (CY3/CY5) by all Data Points (1.3): 2.78
  Normalization by Landmarks (1.6): 0.58
  Normalization by all Data Points (1.3): 0.36
  Ratio of Medians (Cy5/Cy3) First Spot: 0.38
  Ratio of Medians (Cy5/Cy3) Mean: 0.28 ± 0.10
  Ratio of Medians (Cy5/Cy3) Second Spot: 0.18
PBX0141F12 mRNA
  (CY3/CY5) by Landmarks (1.6): 3.56
  (CY3/CY5) by all Data Points (1.3): 5.70
  Normalization by Landmarks (1.6): 0.28
  Normalization by all Data Points (1.3): 0.18
  Ratio of Medians (Cy5/Cy3) First Spot: 0.10
  Ratio of Medians (Cy5/Cy3) Mean: 0.14 ± 0.03
  Ratio of Medians (Cy5/Cy3) Second Spot: 0.17
PBX0141G06 mRNA
  (CY3/CY5) by Landmarks (1.6): 1.67
  (CY3/CY5) by all Data Points (1.3): 2.67
  Normalization by Landmarks (1.6): 0.60
  Normalization by all Data Points (1.3): 0.38
  Ratio of Medians (Cy5/Cy3) First Spot: 0.17
  Ratio of Medians (Cy5/Cy3) Mean: 0.29 ± 0.12
  Ratio of Medians (Cy5/Cy3) Second Spot: 0.41
PBX0141G10 mRNA
  Normalized by Landmarks (1.59): 4.98
  Normalized by all Data Points (1.28): 4.01
  Ratio of Medians (Cy5/Cy3) First Spot: 2.53
  Ratio of Medians (Cy5/Cy3) Mean: 3.13 ± 0.59
  Ratio of Medians (Cy5/Cy3) Second Spot: 3.72
PBX0142E01 mRNA
  (CY3/CY5) by Landmarks (1.6): 2.64
  (CY3/CY5) by all Data Points (1.3): 4.23
  Normalization by Landmarks (1.6): 0.38
  Normalization by all Data Points (1.3): 0.24
  Ratio of Medians (Cy5/Cy3) First Spot: 0.14
  Ratio of Medians (Cy5/Cy3) Mean: 0.18 ± 0.04
  Ratio of Medians (Cy5/Cy3) Second Spot: 0.22
PBX0142E09 mRNA
  Normalized by Landmarks (1.59): 4.32
  Normalized by all Data Points (1.28): 3.48
  Ratio of Medians (Cy5/Cy3) First Spot: 2.50
  Ratio of Medians (Cy5/Cy3) Mean: 2.72 ± 0.21
  Ratio of Medians (Cy5/Cy3) Second Spot: 2.93
PBX0142H06 mRNA
  (CY3/CY5) by Landmarks (1.6): 2.52
  (CY3/CY5) by all Data Points (1.3): 4.04
  Normalization by Landmarks (1.6): 0.40
  Normalization by all Data Points (1.3): 0.25
  Ratio of Medians (Cy5/Cy3) First Spot: 0.15
  Ratio of Medians (Cy5/Cy3) Mean: 0.19 ± 0.04
  Ratio of Medians (Cy5/Cy3) Second Spot: 0.23
PBX0143C01 mRNA
  (CY3/CY5) by Landmarks (1.6): 2.54
  (CY3/CY5) by all Data Points (1.3): 4.07
  Normalization by Landmarks (1.6): 0.39
  Normalization by all Data Points (1.3): 0.25
  Ratio of Medians (Cy5/Cy3) First Spot: 0.16
  Ratio of Medians (Cy5/Cy3) Mean: 0.19 ± 0.03
  Ratio of Medians (Cy5/Cy3) Second Spot: 0.22
PBX0143D10 mRNA
  (CY3/CY5) by Landmarks (1.6): 1.57
  (CY3/CY5) by all Data Points (1.3): 2.51
